# Assay results: article PMC11183015, “In vivo stable ^211At-labeled prostate-specific membrane antigen-targeted tracer using a neopentyl glycol structure” (EJNMMI Radiopharmacy and Chemistry, 2024)
# Marks after values point to notes of the source that are not given here.
# Columns and labels:
# Format in all cases: in vivo, mouse
# [1] = Biodistribution of radioactivity in normal mice
# Description: Six-week-old male ddY mice were injected via the tail vein with each radiolabeled PSMA derivative. Animals were sacrificed and the organs were dissected at 10 min, 1 h, 3 h, and 6 h after injection. Metabolic cages were used for housing normal mice. The tissues of interest were excised and weighed, and the radioactivity counts in each tissue were determined using an auto-well gamma counter. Each value was expressed as the mean percent injected dose/g tissue ± SD for a group of 3–5 animals, except those for the stomach, intestine, and thyroid.
# LNCaP cell xenografts = assay: Biodistribution of radioactivity in tumor-bearing mice; settings: for Radioactivity in Intestine / Radioactivity in Neck / Radioactivity in Stomach: LNCaP tumor-bearing BALB/c-nu/nu mice; for Radioactivity in Blood / Radioactivity in Bone / Radioactivity in Heart / Radioactivity in Kidney / Radioactivity in Liver / Radioactivity in Lung / Radioactivity in Muscle / Radioactivity in Pancreas / Radioactivity in Spleen / Radioactivity in Tumor: male, BALB/c-nu/nu, mouse, in vivo
# Description: Animal studies were conducted in accordance with the institutional guidelines approved by the Chiba University Animal Care Committee (Permit No. 4–183). Five-week-old male ddY mice and BALB/c-nu/nu mice were purchased from Japan SLC Inc. (Hamamatsu, Japan). LNCaP cells (5.0 × 10^6 cells) were suspended in 100 μL of PBS and Matrigel (BD Biosciences, Franklin Lakes, NJ, USA) in a 1:1 ratio. Tumor xenograft models were prepared via subcutaneous injection of this LNCaP cell suspension into BALB/c nude mice.
# Biodistribution studies were conducted using male BALB/c-nu/nu mice bearing LNCaP cell xenografts at 1 and 3 h postinjection of [^211At]At-NpG-D-PSMA (100 µL, 37 kBq) and 1 and 6 h postinjection of ^125I-labeled PSMA derivative (100 µL, 11.1 kBq). In the blocking study, [^125I]I-NpG-D-PSMA was coinjected with 2-PMPA (50 mg/kg weight) into tumor-bearing mice via the tail vein. At 1 h postinjection, the mice were sacrificed. The tissues of interest were excised and weighed, and the radioactivity counts in each tissue were determined using an auto-well gamma counter. Each value was expressed as the mean percent injected dose/g tissue ± SD for a group of 3–5 animals, except those for the stomach, intestine, and thyroid.
# [2] = Analysis of radiometabolites in urine by RP-HPLC; settings: normal ddY mice, urine up to 6 h after injection
# Description: Urine samples were collected from 6-week-old ddY mice 6 h after injection of each ^125I-labeled PSMA derivative (100 µL, 370 kBq). After ethanol precipitation of proteins, the urine samples were filtered through a polycarbonate membrane (0.45 µm) and analyzed by RP-HPLC (System 2).
# [3] = normal ddY mice, i.v., 6 h, metabolic cages
smiles,measurement,setting,value
O=C(O)CCC(NC(=O)NC(CCCCNC(=O)C(Cc1ccc2ccccc2c1)NC(=O)C(CCC(=O)O)NC(=O)C(CCC(=O)O)NC(=O)COCC(CO)(CO)C[125I])C(=O)O)C(=O)O [[^125I]I-NpG-L-PSMA],Radioactivity in Blood,"[1]; normal ddY mice, i.v., 10 min",1.48 ± 0.20^b %ID/g
same,Radioactivity in Bone,"[1]; normal ddY mice, i.v., 10 min",0.68 ± 0.18^a %ID/g
same,Radioactivity in Heart,"[1]; normal ddY mice, i.v., 10 min",1.12 ± 0.24 %ID/g
same,Radioactivity in Intestine,"[1]; normal ddY mice, i.v., 10 min",2.49 ± 0.66 %ID
same,Radioactivity in Kidney,"[1]; normal ddY mice, i.v., 10 min",92.3 ± 11.0^b %ID/g
same,Radioactivity in Liver,"[1]; normal ddY mice, i.v., 10 min",1.64 ± 0.33^a %ID/g
same,Radioactivity in Lung,"[1]; normal ddY mice, i.v., 10 min",2.15 ± 0.49^a %ID/g
same,Radioactivity in Muscle,"[1]; normal ddY mice, i.v., 10 min",0.62 ± 0.18^a %ID/g
same,Radioactivity in Neck,"[1]; normal ddY mice, i.v., 10 min",0.34 ± 0.09^a %ID
same,Radioactivity in Pancreas,"[1]; normal ddY mice, i.v., 10 min",0.80 ± 0.16 %ID/g
same,Radioactivity in Spleen,"[1]; normal ddY mice, i.v., 10 min",2.23 ± 1.10 %ID/g
same,Radioactivity in Stomach,"[1]; normal ddY mice, i.v., 10 min",0.33 ± 0.09 %ID
same,Radioactivity in Blood,"[1]; normal ddY mice, i.v., 1 h",0.26 ±0.01 %ID/g
same,Radioactivity in Bone,"[1]; normal ddY mice, i.v., 1 h",0.36 ± 0.43 %ID/g
same,Radioactivity in Heart,"[1]; normal ddY mice, i.v., 1 h",0.60 ± 0.37 %ID/g
same,Radioactivity in Intestine,"[1]; normal ddY mice, i.v., 1 h",3.40 ± 0.86^a %ID
same,Radioactivity in Kidney,"[1]; normal ddY mice, i.v., 1 h",113.6 ±3.86^ab %ID/g
same,Radioactivity in Liver,"[1]; normal ddY mice, i.v., 1 h",0.99 ± 0.14^ab %ID/g
same,Radioactivity in Lung,"[1]; normal ddY mice, i.v., 1 h",0.69 ± 0.16^ab %ID/g
same,Radioactivity in Muscle,"[1]; normal ddY mice, i.v., 1 h",0.14 ± 0.03 %ID/g
same,Radioactivity in Neck,"[1]; normal ddY mice, i.v., 1 h",0.07 ± 0.03^a %ID
same,Radioactivity in Pancreas,"[1]; normal ddY mice, i.v., 1 h",1.40 ± 1.78 %ID/g
same,Radioactivity in Spleen,"[1]; normal ddY mice, i.v., 1 h",1.05 ± 0.19^ab %ID/g
same,Radioactivity in Stomach,"[1]; normal ddY mice, i.v., 1 h",0.35 ± 0.30 %ID
same,Radioactivity in Blood,"[1]; normal ddY mice, i.v., 3 h",0.04 ± 0.01 %ID/g
same,Radioactivity in Bone,"[1]; normal ddY mice, i.v., 3 h",0.09 ± 0.04 %ID/g
same,Radioactivity in Heart,"[1]; normal ddY mice, i.v., 3 h",0.06 ± 0.01 %ID/g
same,Radioactivity in Intestine,"[1]; normal ddY mice, i.v., 3 h",4.96 ± 0.17^ab %ID
same,Radioactivity in Kidney,"[1]; normal ddY mice, i.v., 3 h",38.6 ± 11.9^a %ID/g
same,Radioactivity in Liver,"[1]; normal ddY mice, i.v., 3 h",0.43 ± 0.01^ab %ID/g
same,Radioactivity in Lung,"[1]; normal ddY mice, i.v., 3 h",0.21 ± 0.03^ab %ID/g
same,Radioactivity in Muscle,"[1]; normal ddY mice, i.v., 3 h",0.10 ± 0.05 %ID/g
same,Radioactivity in Neck,"[1]; normal ddY mice, i.v., 3 h",0.01 ± 0.00 %ID
same,Radioactivity in Pancreas,"[1]; normal ddY mice, i.v., 3 h",0.12 ± 0.03 %ID/g
same,Radioactivity in Spleen,"[1]; normal ddY mice, i.v., 3 h",0.22 ± 0.07^ab %ID/g
same,Radioactivity in Stomach,"[1]; normal ddY mice, i.v., 3 h",0.08 ± 0.02^b %ID
same,Radioactivity in Blood,"[1]; normal ddY mice, i.v., 6 h",0.03 ± 0.02 %ID/g
same,Radioactivity in Bone,"[1]; normal ddY mice, i.v., 6 h",0.05 ± 0.01 %ID/g
same,Radioactivity in Heart,"[1]; normal ddY mice, i.v., 6 h",0.05 ± 0.05 %ID/g
same,Radioactivity in Intestine,"[1]; normal ddY mice, i.v., 6 h",4.60 ± 2.56 %ID
same,Radioactivity in Kidney,"[1]; normal ddY mice, i.v., 6 h",21.2 ± 9.70^a %ID/g
same,Radioactivity in Liver,"[1]; normal ddY mice, i.v., 6 h",0.53 ±0.02^ab %ID/g
same,Radioactivity in Lung,"[1]; normal ddY mice, i.v., 6 h",0.09 ± 0.03^a %ID/g
same,Radioactivity in Muscle,"[1]; normal ddY mice, i.v., 6 h",0.05 ± 0.01 %ID/g
same,Radioactivity in Neck,"[1]; normal ddY mice, i.v., 6 h",0.02 ± 0.01 %ID
same,Radioactivity in Pancreas,"[1]; normal ddY mice, i.v., 6 h",0.07 ± 0.04 %ID/g
same,Radioactivity in Spleen,"[1]; normal ddY mice, i.v., 6 h",0.11 ± 0.03^a %ID/g
same,Radioactivity in Stomach,"[1]; normal ddY mice, i.v., 6 h",0.23 ± 0.29 %ID
same,Radioactivity in Feces,[1]; [3],0.45 ± 0.48 %ID
same,Radioactivity in Urine,[1]; [3],53.3 ± 5.56 %ID
same,Accumulation in the stomach and thyroid (stability against deiodination),[1]; normal mice,low accumulation
same,Radioactivity in Intestine,LNCaP cell xenografts; 1 h,2.52 ± 0.29^a %ID
same,Radioactivity in Neck,LNCaP cell xenografts; 1 h,0.45 ± 0.13^a %ID
same,Radioactivity in Stomach,LNCaP cell xenografts; 1 h,0.23 ± 0.04 %ID
same,Radioactivity in Intestine,LNCaP cell xenografts; 6 h,1.87 ± 0.41 %ID
same,Radioactivity in Neck,LNCaP cell xenografts; 6 h,3.19 ± 1.28 %ID
same,Radioactivity in Stomach,LNCaP cell xenografts; 6 h,0.15 ± 0.07 %ID
same,Radioactivity in Blood,LNCaP cell xenografts; 1 h,0.66 ± 0.18 %ID/g
same,Radioactivity in Bone,LNCaP cell xenografts; 1 h,0.47 ± 0.12^a %ID/g
same,Radioactivity in Heart,LNCaP cell xenografts; 1 h,1.62 ± 0.87 %ID/g
same,Radioactivity in Kidney,LNCaP cell xenografts; 1 h,223 ± 5.91^a %ID/g
same,Radioactivity in Liver,LNCaP cell xenografts; 1 h,1.85 ± 0.50^a %ID/g
same,Radioactivity in Lung,LNCaP cell xenografts; 1 h,2.78 ± 0.93 %ID/g
same,Radioactivity in Muscle,LNCaP cell xenografts; 1 h,0.64 ± 0.21^a %ID/g
same,Radioactivity in Pancreas,LNCaP cell xenografts; 1 h,1.17 ± 0.38 %ID/g
same,Radioactivity in Spleen,LNCaP cell xenografts; 1 h,37.0 ± 10.4 %ID/g
same,Radioactivity in Tumor,LNCaP cell xenografts; 1 h,9.19 ± 1.89^a %ID/g
same,Radioactivity in Blood,LNCaP cell xenografts; 6 h,0.11 ± 0.03^a %ID/g
same,Radioactivity in Bone,LNCaP cell xenografts; 6 h,0.09 ± 0.02 %ID/g
same,Radioactivity in Heart,LNCaP cell xenografts; 6 h,0.22 ± 0.06^a %ID/g
same,Radioactivity in Kidney,LNCaP cell xenografts; 6 h,226 ± 30.0 %ID/g
same,Radioactivity in Liver,LNCaP cell xenografts; 6 h,0.44 ± 0.02^a %ID/g
same,Radioactivity in Lung,LNCaP cell xenografts; 6 h,0.59 ± 0.12^a %ID/g
same,Radioactivity in Muscle,LNCaP cell xenografts; 6 h,0.27 ± 0.31 %ID/g
same,Radioactivity in Pancreas,LNCaP cell xenografts; 6 h,0.26 ± 0.08^a %ID/g
same,Radioactivity in Spleen,LNCaP cell xenografts; 6 h,4.55 ± 1.18^a %ID/g
same,Radioactivity in Tumor,LNCaP cell xenografts; 6 h,11.0 ± 2.68^a %ID/g
same,Form of radioactivity excreted in urine,[2],intact [^125I]I-NpG-L-PSMA and as radiometabolites
